In ChEMBL document CHEMBL3217690, “Superiority of a novel EGFR targeted covalent inhibitor over its reversible counterpart in overcoming drug resistance” (Medchemcomm, 2012):
Active and inactive are the calls of the source. The calls are words filed in the database; no cut-off is given here.

What was measured:
[1] = molecular target: T1, Epidermal growth factor receptor (Homo sapiens, UniProt P00533); assay: Inhibition of wild type EGFR (unknown origin) using Y12-Sox peptide as substrate preincubated for 30 mins by fluorescence assay
T1 sequence (P00533 whole entry): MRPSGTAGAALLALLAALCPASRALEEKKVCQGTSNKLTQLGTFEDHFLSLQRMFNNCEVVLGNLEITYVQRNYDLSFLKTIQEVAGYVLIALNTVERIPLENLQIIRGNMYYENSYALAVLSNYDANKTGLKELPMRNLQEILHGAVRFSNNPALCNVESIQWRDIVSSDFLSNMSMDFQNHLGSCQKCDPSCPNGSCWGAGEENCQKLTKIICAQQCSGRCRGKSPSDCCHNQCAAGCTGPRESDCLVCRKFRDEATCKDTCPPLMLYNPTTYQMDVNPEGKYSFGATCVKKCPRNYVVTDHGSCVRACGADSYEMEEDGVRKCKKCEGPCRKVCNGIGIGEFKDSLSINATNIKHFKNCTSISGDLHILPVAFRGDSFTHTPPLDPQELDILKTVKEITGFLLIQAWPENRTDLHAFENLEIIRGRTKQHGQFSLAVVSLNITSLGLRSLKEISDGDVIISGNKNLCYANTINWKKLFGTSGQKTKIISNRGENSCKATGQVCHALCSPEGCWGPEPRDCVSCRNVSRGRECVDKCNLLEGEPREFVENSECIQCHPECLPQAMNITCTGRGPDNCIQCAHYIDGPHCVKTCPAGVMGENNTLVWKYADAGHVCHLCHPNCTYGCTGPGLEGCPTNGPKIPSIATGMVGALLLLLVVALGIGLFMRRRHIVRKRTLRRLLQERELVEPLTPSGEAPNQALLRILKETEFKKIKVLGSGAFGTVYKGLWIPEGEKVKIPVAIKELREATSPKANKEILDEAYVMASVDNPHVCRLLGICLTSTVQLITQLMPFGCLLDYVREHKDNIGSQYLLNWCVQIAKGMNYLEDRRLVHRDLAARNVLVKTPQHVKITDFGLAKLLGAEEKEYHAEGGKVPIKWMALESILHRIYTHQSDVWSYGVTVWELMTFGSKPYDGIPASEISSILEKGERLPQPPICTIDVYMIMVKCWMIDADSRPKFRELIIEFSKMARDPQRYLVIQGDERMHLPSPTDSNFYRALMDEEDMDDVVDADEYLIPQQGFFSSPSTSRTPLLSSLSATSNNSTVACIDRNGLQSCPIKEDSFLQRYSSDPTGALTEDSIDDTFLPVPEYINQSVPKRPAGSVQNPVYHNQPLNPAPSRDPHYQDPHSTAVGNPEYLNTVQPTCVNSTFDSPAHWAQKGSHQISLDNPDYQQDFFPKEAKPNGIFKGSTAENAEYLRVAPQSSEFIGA

[2] = molecular target: T2, Epidermal growth factor receptor (Homo sapiens, UniProt P00533, L858R/T790M); assay: Inhibition of EGFR L858R/T790M mutant (unknown origin) using Y12-Sox peptide as substrate preincubated for 30 mins by fluorescence assay; format: protein assay
T2 sequence (P00533 25-1210 T790M/L858R limits assumed): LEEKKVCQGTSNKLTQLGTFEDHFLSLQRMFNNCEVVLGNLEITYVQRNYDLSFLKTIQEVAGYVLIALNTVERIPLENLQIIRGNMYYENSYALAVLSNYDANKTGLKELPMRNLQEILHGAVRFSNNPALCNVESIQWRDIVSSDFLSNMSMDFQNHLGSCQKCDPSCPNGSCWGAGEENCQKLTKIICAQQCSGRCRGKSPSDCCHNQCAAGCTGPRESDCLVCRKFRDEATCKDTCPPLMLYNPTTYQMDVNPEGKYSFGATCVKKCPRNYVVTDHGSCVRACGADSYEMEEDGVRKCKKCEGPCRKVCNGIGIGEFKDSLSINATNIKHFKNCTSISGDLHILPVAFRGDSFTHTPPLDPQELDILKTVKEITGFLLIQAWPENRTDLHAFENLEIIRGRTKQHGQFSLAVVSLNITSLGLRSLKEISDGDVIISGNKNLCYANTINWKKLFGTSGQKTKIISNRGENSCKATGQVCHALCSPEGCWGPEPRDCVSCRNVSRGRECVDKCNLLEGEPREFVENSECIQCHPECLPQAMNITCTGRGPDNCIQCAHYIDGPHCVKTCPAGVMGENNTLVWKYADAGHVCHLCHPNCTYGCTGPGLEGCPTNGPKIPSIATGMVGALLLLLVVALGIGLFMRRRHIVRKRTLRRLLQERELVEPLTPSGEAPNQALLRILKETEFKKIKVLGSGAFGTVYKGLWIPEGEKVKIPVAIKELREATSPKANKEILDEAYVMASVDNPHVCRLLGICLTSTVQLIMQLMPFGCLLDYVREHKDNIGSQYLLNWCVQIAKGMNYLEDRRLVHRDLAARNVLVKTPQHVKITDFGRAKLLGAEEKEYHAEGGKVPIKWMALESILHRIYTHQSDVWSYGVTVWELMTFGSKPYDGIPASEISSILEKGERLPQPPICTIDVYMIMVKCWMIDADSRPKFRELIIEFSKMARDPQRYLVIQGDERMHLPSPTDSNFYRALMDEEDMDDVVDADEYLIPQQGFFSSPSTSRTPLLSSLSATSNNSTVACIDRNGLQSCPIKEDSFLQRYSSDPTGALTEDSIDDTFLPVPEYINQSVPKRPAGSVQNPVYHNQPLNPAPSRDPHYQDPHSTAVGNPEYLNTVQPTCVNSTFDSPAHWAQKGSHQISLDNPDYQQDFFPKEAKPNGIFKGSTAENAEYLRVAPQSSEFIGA

A-431 = assay: Growth inhibition of human A431 cells harboring wild type EGFR assessed as reduction in cell viability after 72 hrs by CellTiter Glo assay; format: functional; conditions: A-431, 72 h
[3] = Growth inhibition of human HCC827 cells harboring EGFR E746 to E750 deletion mutant assessed as reduction in cell viability after 72 hrs by CellTiter Glo assay; format: functional; conditions: HCC827, 72 h
NCI-H1975 = assay: Growth inhibition of human NCI-H1975 cells harboring EGFR L858R/T790M mutant assessed as reduction in cell viability after 72 hrs by CellTiter Glo assay; format: functional; conditions: NCI-H1975, 72 h
[4] = molecular target: T1, Epidermal growth factor receptor; assay: Inhibition of EGF-induced EGFR autophosphorylation in human A431 cells after 1 hr by immunoblotting method; format: cell-based, A-431
[5] = molecular target: T1, Epidermal growth factor receptor; assay: Inhibition of EGF-induced EGFR-mediated Akt phosphorylation in human A431 cells after 1 hr by immunoblotting method; format: cell-based, A-431
[6] = molecular target: T1, Epidermal growth factor receptor; assay: Inhibition of EGF-induced EGFR-mediated ERK phosphorylation in human A431 cells after 1 hr by immunoblotting method; format: cell-based, A-431
[7] = molecular target: T1, Epidermal growth factor receptor; assay: Inhibition of EGF-induced EGFR-mediated pS6 phosphorylation in human A431 cells after 1 hr by immunoblotting method; format: cell-based, A-431
[8] = Inhibition of EGF-induced EGFR E746 to E750 deletion mutant autophosphorylation in human HCC827 cells after 1 hr by immunoblotting method; format: cell-based; conditions: HCC827, 1 h
[9] = Inhibition of EGF-induced EGFR E746 to E750 deletion mutant-mediated Akt phosphorylation in human HCC827 cells after 1 hr by immunoblotting method; format: cell-based; conditions: HCC827, 1 h
[10] = Inhibition of EGF-induced EGFR E746 to E750 deletion mutant-mediated pS6 phosphorylation in human HCC827 cells after 1 hr by immunoblotting method; format: cell-based; conditions: HCC827, 1 h
[11] = molecular target: T2, Epidermal growth factor receptor; assay: Inhibition of EGF-induced EGFR L858R/T790M mutant autophosphorylation in human […] cells after 1 hr by immunoblotting method; format: cell-based
[12] = molecular target: T2, Epidermal growth factor receptor; assay: Inhibition of EGF-induced EGFR L858R/T790M mutant-mediated Akt phosphorylation in human […] cells after 1 hr by immunoblotting method; format: cell-based
[13] = molecular target: T2, Epidermal growth factor receptor; assay: Inhibition of EGF-induced EGFR L858R/T790M mutant-mediated ERK phosphorylation in human […] cells after 1 hr by immunoblotting method; format: cell-based
[14] = molecular target: T2, Epidermal growth factor receptor; assay: Inhibition of EGF-induced EGFR L858R/T790M mutant-mediated pS6 phosphorylation in human […] cells after 1 hr by immunoblotting method; format: cell-based
[15] = molecular target: T1, Epidermal growth factor receptor; assay: Reversible inhibition of EGF-induced EGFR autophosphorylation in human A431 cells assessed as residual activity compound preincubated at 1 uM for 1 hr measured after 1 hr post compound washout by immunoblotting method; format: cell-based; conditions: A-431
[16] = molecular target: T1, Epidermal growth factor receptor; assay: Reversible inhibition of EGF-induced EGFR autophosphorylation in human A431 cells assessed as residual activity compound preincubated at 1 uM for 1 hr measured after 8 hrs post compound washout by immunoblotting method; format: cell-based; conditions: A-431
[17] = molecular target: T1, Epidermal growth factor receptor; assay: Covalent binding affinity to wild type EGFR (unknown origin) after 1 hr by mass spectrometry
[18] = molecular target: T1, Epidermal growth factor receptor; assay: Irreversible inhibition of EGF-induced EGFR autophosphorylation in human A431 cells assessed as residual activity compound preincubated at 1 uM for 1 to 8 hrs measured after 1 hr post compound washout by immunoblotting method; format: cell-based; conditions: A-431
Homo sapiens = species: Homo sapiens; assay: Covalent binding affinity to EGFR C773S mutant (unknown origin) after 1 hr by mass spectrometry
[19] = molecular target: T1, Epidermal growth factor receptor; assay: Inhibition of EGF-induced EGFR autophosphorylation in human A431 cells at 1 uM after 2 mins by immunoblotting method; format: cell-based; conditions: A-431
[20] = molecular target: T1, Epidermal growth factor receptor; assay: Inhibition of EGF-induced EGFR autophosphorylation in human A431 cells at 1 uM after 10 mins by immunoblotting method; format: cell-based; conditions: A-431
[21] = molecular target: T1, Epidermal growth factor receptor; assay: Inhibition of EGF-induced EGFR autophosphorylation in human A431 cells at 1 uM after 30 mins by immunoblotting method; format: cell-based; conditions: A-431

CCC(=O)Nc1cccc(Nc2cc(Nc3cccc(Br)c3)ncn2)c1
IC50 [1]: < 1 nM
IC50 [2]: > 5000 nM
GI50 (A-431): 18 nM
GI50 [3]: 15 nM
GI50 (NCI-H1975): 89 nM
IC50 [4]: 166 nM
IC50 [5]: 136 nM
IC50 [6]: 1160 nM
IC50 [7]: 243 nM
EC50 [8]: 27 nM
EC50 [9]: < 20 nM
EC50 [10]: < 20 nM
EC50 [11]: > 5000 nM
EC50 [12]: > 4580 nM
EC50 [13]: > 5000 nM
EC50 [14]: > 5000 nM
Activity [15]: 20%
Activity [16]: 60%
Activity [17]: inactive

C=CC(=O)Nc1cccc(Nc2cc(Nc3cccc(Br)c3)ncn2)c1
IC50 [1]: < 1 nM
IC50 [2]: 5.4 nM
GI50 (A-431): 18 nM
GI50 [3]: < 5 nM
GI50 (NCI-H1975): 134 nM
IC50 [4]: 49 nM
IC50 [5]: 104 nM
IC50 [6]: 509 nM
IC50 [7]: 511 nM
EC50 [8]: < 20 nM
EC50 [9]: < 20 nM
EC50 [10]: < 20 nM
EC50 [11]: 441 nM
EC50 [12]: 166 nM
EC50 [13]: 172 nM
EC50 [14]: 427 nM
inhibition [18]: Active
Activity [17]: > 80%
Activity (Homo sapiens): inactive
inhibition [19]: 50%
inhibition [20]: 90%
inhibition [21]: Active
